Measurements published in patent publication US20040057958A1, “Immunogenicity-enhancing carriers and compositions thereof and methods of using the same” (priority 2002, published 2004).

Tested on: mice
Experiment: ELISA of antisera from mice immunized with CPT1PaTXL
Assay type: in vivo
Details: ten mice inoculated SC/IP with CPT1PaTXL (first two inoculations +PTA); any bleed, including the terminal bleed; TXL coupled to BSA for ELISA
Experimental: The hybridoma project began with a series of sequential inoculations by subcutaneous (SC) or interperitoneal (IP) injections of 100 μg of CPT1PaTXL formulated in PBS. In addition to the CPT1PaTXL, the first two inoculations also contained […] toxin as adjuvant (PTA). All subsequent inoculations were without PTA and had various amounts of CPT1PaTXL according to the following approximate schedule:
Ten mice were used in the immunization protocol. At each scheduled test bleed, 100 μl of blood was obtained from the tail, and an ELISA was conducted to evaluate reactivity against either Polyglutamate (PG) alone, Paclitaxel (TXL) or CT-2103. Because of the poor solubility of TXL in aqueous solutions, TXL was coupled to Bovine Serum Albumin, fraction V (Sigma Biochemicals, St. Louis Mo.) for ELISA testing. ELISA assays are performed as described in detail in Harlow, E. and Lane, D., Antibodies, A Laboratory Manual, Cold Spring Harbor Laboratory Press, 1988, pp. 564-569. Reactivity against the P. falciparum peptide epitope was analyzed following the terminal bleed.

Structure (SMILES): CC(=O)O[C@H]1C(=O)[C@@]2(C)[C@H]([C@H](OC(=O)c3ccccc3)[C@]3(O)C[C@H](OC(=O)[C@H](O)[C@@H](NC(=O)c4ccccc4)c4ccccc4)C(C)=C1C3(C)C)[C@]1(OC(C)=O)CO[C@@H]1C[C@@H]2O [TXL, Paclitaxel]
- antibody reactivity (anti-PG, anti-TXL, anti-CT-2103) in ELISA of test bleeds: no detectable
